In paper PMC2923493 (Tetrahedron, 2010):
Where two headings read alike, the source gives them in different places.

How the values were obtained:
[1] = tested on: HT-29 human colon cancer cells; test: Cytotoxicity assay; assay type: cell-based; conditions: HT-29 cells, three days
[2] = target: T1, chymotrypsin-like proteasome activity (Homo sapiens, UniProt P28074); test: Proteasome inhibition assay; assay type: biochemical
T1 sequence (P28074 60-263): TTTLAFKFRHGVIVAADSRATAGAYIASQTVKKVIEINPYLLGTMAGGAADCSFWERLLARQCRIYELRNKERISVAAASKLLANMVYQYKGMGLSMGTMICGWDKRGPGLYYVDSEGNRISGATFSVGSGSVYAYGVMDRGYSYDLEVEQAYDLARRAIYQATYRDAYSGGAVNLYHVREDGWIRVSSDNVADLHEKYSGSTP

[3] = tested on: LNCaP, HT-29, MCF-7 and MDA-MB 435 human cancer cells; test: In vivo hollow fiber assay; conditions: highest dose tested (20 mg/kg), mice, intraperitoneal, all cell lines
[4] = tested on: human SPC-A1 cell; conditions: cited from earlier work
[5] = tested on: human SPC-A1 cell; conditions: cited from earlier work; remark: listed apart in the source
[6] = read-out: Proteasome Inhibition IC50, Suc-LLVY-AMC 10 μM

| Molecule | Cytotoxicity ED50 [1] [µM] | IC50 [2, 6] [µM] | further results |
| --- | --- | --- | --- |
| CC1(C)Oc2c(cc3c(=O)c4c(O)cc(O)cc4oc3c2O)[C@H](O)[C@H]1O [Compound 2, (3R,4S)-3,4,7,9,12-pentahydroxy-2,2-dimethyl-3,4-dihydropyrano[3,2-b]xanthen-6(2H)-one] | >10 |  |  |
| CO[C@H]1[C@H]2C(=O)c3c(O)c4c(c(CC=C(C)C)c3O[C@@]23[C@@H]2C[C@H]1C(=O)[C@]3(C/C=C(/C)C(=O)O)OC2(C)C)OC(C)(C)C=C4 [Compound 3, isomoreollic acid] | 1.9 | > 10 |  |
| CC(C)=CCc1c(O)c(CC=C(C)C)c2c(c1O)C(=O)C1=C[C@H]3C[C@@H]4C(C)(C)O[C@@](C/C=C(/C)C(=O)O)(C3=O)[C@@]14O2 [Compound 4, isogaudichaudiic acid] | 3.2 | > 10 |  |
| C=C(C)C(O)Cc1c2c(c(O)c3c1O[C@]14C(=C[C@H]5C[C@@H]1C(C)(C)O[C@@]4(C/C=C(\C)C(=O)O)C5=O)C3=O)C=CC(C)(C)O2 (some centres unmarked) [Compound 5, isogaudichaudiic acid E] | 2.6 | > 10 |  |
| CC(C)=CCc1c2c(c(O)c3c1O[C@]14C(=C[C@H]5C[C@@H]1C(C)(C)O[C@@]4(C/C=C(/C)C(=O)O)C5=O)C3=O)CC(O)C(C)(C)O2 (stereo partly drawn) [Compound 6, (5R,7S,10aS,27S)-11,12-dihydro-12-hydroxymorellic acid] | 2.9 |  |  |
| O=C1c2c(O)cc(O)cc2O[C@H](c2ccc(O)cc2)[C@H]1c1c(O)cc(O)c2c(=O)cc(-c3ccc(O)c(O)c3)oc12 [Compound 8, morelloflavone] | >10 |  | IC50 [2]: 1.3 µM |
| O=C1c2c(O)cc(O)cc2O[C@@H](c2ccc(O)cc2)[C@@H]1c1c(O)cc(O)c2c(=O)cc(-c3ccc(O)cc3)oc12 [Compound 9, talbotaflavone] |  | 4.4 |  |
| CC(C)=CCc1c2c(c(O)c3c1O[C@]14C(=C[C@@H]5C[C@H]1C(C)(C)O[C@@]4(C/C=C(/C)C(=O)O)C5=O)C3=O)C=CC(C)(C)O2 [Compound 10, morellic acid] | 0.36 | > 10 | Activity in in vivo hollow fiber assay [3]: inactive |
| CC(C)=CCC[C@]1(C)C=Cc2c(O)c3c(c(CC=C(C)C)c2O1)O[C@]12C(=C[C@@H]4C[C@H]1C(C)(C)O[C@@]2(C/C=C(/C)C(=O)O)C4=O)C3=O [gambogic acid] |  |  | Inhibition of SPC-A1 cell growth in vivo [4]: inhibited; Inhibition of SPC-A1 cell growth in vitro [5]: inhibited |
| isogaudichaudiic acid B [Compound 7] | >10 |  |  |
